Common to all, as to format: in vivo
The subject of test [1] is Amaranthus palmeri, PPO inhibitor sensitive population ('Sensitive'). The test is described as follows: Postemergence control of PPO inhibitor sensitive Amaranthus palmeri (Example 1). As to conditions: for use rate achieving complete control (no surviving plants) of the 'sensitive' population / % Survival out of 14 repetitions: postemergence, 14 days after application; for % Survival out of 14 repetitions: Sensitive, Adigor 0.5% by volume. An excerpt: (§1) The commercial standard PPO inhibitor fomesafen and compound 1 of the present application were applied to two Amaranthus palmeri populations in order to determine the impact of mutations at amino acid 98 in PPX2L from the wild-type arginine to a glycine.
(§2) The two A. palmeri populations used were as follows: a known PPO inhibitor sensitive population (‘Sensitive’), a population of which each individual was known to be homozygous for a glycine at amino acid 98 in the protoporphyrinogen oxidase gene PPX2L (‘98GG’).
(§3) Seeds were sown in seed trays containing ericaceous compost and covered with vermiculite. When approximately 1 inch in height plants were transplanted 1 per pot into 3-inch diameter pots containing ericaceous compost. The pots were watered and maintained in a glasshouse providing a 16 H photoperiod of 180 μmol m^−2 s^−1 with 24 °C daytime temperatures and 18 °C night-time temperatures and 65% relative humidity until 3 inches tall at which point the herbicides were applied at the use rates specified in Table 1 below to 14 individual plants per rate of each of the biotypes.
(§4) All treatments were applied as dilutions in reverse osmosis water and with the commercial adjuvant Adigor® at 0.5% by volume. Prior to dilution with water compound 8 was initially dissolved to a 5% solution in a solvent mixture comprising 11.12% Emulsogen EL 360, 44.44% Dowanol DPM and 44.44% N-methyl pyrrolidone. Herbicide applications were carried out in a track sprayer with a flat fan nozzle applying the herbicide treatments at a rate of 200 L/ha^−1.
(§5) After treatment, the plants were watered and maintained in a glasshouse providing a 16 H photoperiod of 180 μmol m^−2 s^−1 with 24 °C daytime temperatures and 18 °C night-time temperatures and 65% relative humidity until 14 days after application at which point they were assessed on a ‘dead or alive’ basis. The plants still alive at this point were classed as surviving the herbicide application and the averaged results of this assessment are presented in Table 1.

Test [2] has as its system Amaranthus tuberculatus, Sensitive. The test is described as follows: Postemergence control of sensitive population (Example 2). As to conditions: Agridex 1% by volume.
The test system of test [3] is Amaranthus palmeri, homozygous for glycine at amino acid 98 in PPX2L ('98GG', R98G). As to the kind of experiment: Postemergence control of Amaranthus palmeri with R98G mutation in PPX2L (Example 1). To be noted: for % Survival out of 14 repetitions: R98G, postemergence, 14 days after application, Adigor 0.5% by volume.
From the text: as §1, §2, §3, §4, §5

With `CCOC(=O)[C@]1(C)CC(c2cc(-n3c(=O)n(C)c(=S)n(C)c3=O)c(F)cc2Cl)=NO1` [compound 1, ethyl (5S)-3-[2-chloro-5-(3,5-dimethyl-2,6-dioxo-4-thioxo-1,3,5-triazinan-1-yl)-4-fluoro-phenyl]-5-methyl-4H-isoxazole-5-carboxylate], in test [1] ('sensitive' population, compared with fomesafen), the “ability for controlling the 'sensitive' population compared with fomesafen” value is on record as “improved ability compared with fomesafen for controlling the ‘sensitive’ population”. In addition, the “use rate achieving complete control (no surviving plants) of the 'sensitive' population” value in test [1] ('sensitive' population) is given as ≥ 16 g ai/ha^−1. Besides, the “% Survival out of 14 repetitions” value stood at 100% in test [1] (0.5 g ai/ha^−1); 100% in test [1] (1 g ai/ha^−1); 86% in test [1] (2 g ai/ha^−1); 43% in test [1] (4 g ai/ha^−1); 7% in test [1] (8 g ai/ha^−1); 0% in test [1] (16 g ai/ha^−1). Also, the “% Survival out of 14 repetitions” value in test [1] (32 g ai/ha^−1) was found to be 0%; in test [1] (64 g ai/ha^−1) it was 0%; in test [2] (0.5 g ai/ha^−1, 14 days after application) it was 100%; in test [2] (1 g ai/ha^−1, 14 days after application), 100%; in test [2] (2 g ai/ha^−1, 14 days after application) it was 86%; in test [2] (4 g ai/ha^−1, 14 days after application), 43%. Further, the “% Survival out of 14 repetitions” value in test [2] (8 g ai/ha^−1, 14 days after application) is 14%; in test [2] (16 g ai/ha^−1, 14 days after application), 0%; in test [2] (32 g ai/ha^−1, 14 days after application), 0%; in test [2] (64 g ai/ha^−1, 14 days after application) it was 0%; in test [3] (0.5 g ai/ha^−1), 100%; in test [3] (1 g ai/ha^−1) it was 100%. Also, the “% Survival out of 14 repetitions” value in test [3] (2 g ai/ha^−1) is 100%; in test [3] (4 g ai/ha^−1), 100%; in test [3] (8 g ai/ha^−1), 100%; in test [3] (16 g ai/ha^−1), 79%; in test [3] (32 g ai/ha^−1), 79%; in test [3] (64 g ai/ha^−1), 21%. In test [3] ('98GG', 16 g ai/ha^−1 rate, compared with fomesafen), the “control of '98GG'” value is “better control of ‘98GG’”.
As for `CS(=O)(=O)NC(=O)c1cc(Oc2ccc(C(F)(F)F)cc2Cl)ccc1[N+](=O)[O-]` [fomesafen, reference compound], the “use rate achieving complete control (no surviving plants) of the 'sensitive' population” value in test [1] ('sensitive' population) is reported as ≥ 64 g ai/ha^−1. Moreover, the “% Survival out of 14 repetitions” value was 100% in test [1] (1 g ai/ha^−1); 100% in test [1] (2 g ai/ha^−1); 86% in test [1] (4 g ai/ha^−1); 71% in test [1] (8 g ai/ha^−1); 14% in test [1] (16 g ai/ha^−1); 7% in test [1] (32 g ai/ha^−1). Further, the “% Survival out of 14 repetitions” value is 0% in test [1] (64 g ai/ha^−1); 0% in test [1] (128 g ai/ha^−1); 100% in test [3] (1 g ai/ha^−1); 100% in test [3] (2 g ai/ha^−1); 100% in test [3] (4 g ai/ha^−1); 100% in test [3] (8 g ai/ha^−1). Also, the “% Survival out of 14 repetitions” value in test [3] (16 g ai/ha^−1) stood at 100%; in test [3] (32 g ai/ha^−1), 93%; in test [3] (64 g ai/ha^−1), 93%; in test [3] (128 g ai/ha^−1) it was 93%.

The record behind these values is patent US20260372305A1, “A METHOD FOR CONTROLLING WEEDS” (SYNGENTA CROP PROTECTION AG, priority 2022, published 2026).
